Results on eight compounds are retold here after patent publication US20220324835A1 (Nurix Therapeutics, Inc., priority 2018, published 2022).

pIC50, pKd: −log10 of the molar value.

Assay [1] has as its target T1, Cbl-b (Homo sapiens, UniProt Q13191). The assay is described as follows: Cbl-b inhibition assay (Cbl-b activity assay, FRET, Biological Example 1; 100 mM NaCl, 60 nM Src kinase). Type of assay: biochemical. The settings on record: upper bound stated in text lists; read-out: IC50 values in the Cbl-b inhibition assay of Biological Example 1. A digest of the protocol:
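N-terminally biotinylated Avi-tagged Cbl-b was mixed with Src kinase, UbcH5B covalently conjugated to Bodipy-fluorescein ubiquitin, and streptavidin-terbium. Src phosphorylation lets Cbl-b bind UbcH5B-Ub, giving terbium-fluorescein FRET; inhibition is read as loss of FRET signal.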

Assay [2] has as its system T-cell. Kind of assay: IL-2 secretion from T-cells stimulated with anti-CD3 antibody alone (Biological Example 2). The assay is classed as cell-based. The settings on record: primary human total T-cells, read-out: IL-2 secretion, Anti-CD3 stimulation, fold change over baseline; for fold induction at 1 µM: 1 μM compound; for fold induction at 8 µM: 8 μM compound.
Assay [3] deals with T-cell. The assay is described as follows: IL-2 secretion from T-cells co-stimulated with anti-CD3 and anti-CD28 antibody (Biological Example 2). Type of assay: cell-based, human. The conditions noted are these: Homo sapiens, T-cell, primary human total T-cells, baseline = anti-CD3/anti-CD28 stimulated cells without inhibitor, read-out: IL-2 secretion, Anti-CD3/Anti-CD28 stimulation, fold change over baseline; for fold induction at 0.3 µM: 0.3 μM compound; for fold induction at 1 µM: 1 μM compound; for fold induction at 4 µM: 4 μM compound. A digest of the protocol: (§1)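 No assay protocol given; T-cells stimulated with anti-CD3 alone or anti-CD3 plus anti-CD28, with or without Cbl-b inhibitor. Activation read as IL-2 secretion or CD25 surface staining, expressed as fold over baseline from uninhibited cells […].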

For assay [4], the system named is T-cell. The assay is described as follows: CD25 cell surface staining on T-cells stimulated with anti-CD3 antibody alone (Biological Example 2). Type of assay: cell-based. The settings on record: primary human total T-cells, baseline = anti-CD3/anti-CD28 stimulated cells without inhibitor, read-out: CD25 staining, Anti-CD3 stimulation, fold change over baseline; for fold induction at 1 µM: 1 μM compound; for fold induction at 8 µM: 8 μM compound.

Assay [5] deals with T1, Cbl-b. Kind of assay: Cbl-b activity assay (Cbl-b inhibition assay), TR-FRET of Cbl-b interaction with UbcH5B-Ub. The assay is classed as biochemical. The conditions noted are these: assay buffer with 100 mM NaCl, 60 nM Src kinase; read-out: Cbl-b activity IC50. In a few lines: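 TR-FRET readout of Cbl-b binding to Bodipy-fluorescein N-terminally labeled Ub conjugated to UbcH5B C85K, measured with compound present. After compound incubation, 60 nM Src kinase with 1 mM ATP and 5 mM MgCl2 (final) was added for 1.5 h, then a further 1 h incubation; asterisked values used 50 mM NaCl buffer and 30 nM Src.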
(In general: Time-resolved FRET reads energy transfer from a long-lived donor to a nearby acceptor.)

In assay [6] the test system is T-cell. Kind of assay: CD25 cell surface staining on T-cells co-stimulated with anti-CD3 and anti-CD28 antibody (Biological Example 2). Type of assay: cell-based, human. The conditions noted are these: Homo sapiens, T-cell, primary human total T-cells, baseline = anti-CD3/anti-CD28 stimulated cells without inhibitor, read-out: CD25 staining, Anti-CD3/Anti-CD28 stimulation, fold change over baseline; for fold induction at 0.3 µM: 0.3 μM compound; for fold induction at 1 µM: 1 μM compound; for fold induction at 4 µM: 4 μM compound. In a few lines: as §1

Assay [7] addresses Cbl-b (residues 36-427) (Homo sapiens, UniProt Q13191). Kind of assay: Cbl-b binding assay (SPR, Biacore T200). The settings on record: 20° C., 1:1 binding model. A digest of the protocol: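 Affinities derived from global 1:1 steady-state or kinetic fits of double-referenced, solvent-corrected SPR data, 20 °C, NeutrAvidin-capture chip. Compound series (top 100 or 50 μM, 8–10 points) injected 50 s, 90–180 s dissociation. Asterisked values used 50 mM instead of 100 mM NaCl and 30 nM Src kinase.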

Sequence of Cbl-b (residues 36-427) (Q13191 36-427): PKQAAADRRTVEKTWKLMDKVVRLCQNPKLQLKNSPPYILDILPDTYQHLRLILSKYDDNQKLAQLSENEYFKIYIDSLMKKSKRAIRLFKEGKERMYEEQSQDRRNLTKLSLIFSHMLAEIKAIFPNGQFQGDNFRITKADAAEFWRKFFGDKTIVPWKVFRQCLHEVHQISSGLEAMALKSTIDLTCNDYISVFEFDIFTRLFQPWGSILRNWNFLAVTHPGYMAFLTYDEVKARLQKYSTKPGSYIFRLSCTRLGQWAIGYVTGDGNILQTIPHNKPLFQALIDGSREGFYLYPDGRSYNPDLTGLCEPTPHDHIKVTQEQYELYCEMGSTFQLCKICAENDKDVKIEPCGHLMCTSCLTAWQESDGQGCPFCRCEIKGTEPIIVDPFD
T1 sequence (Q13191 36-427): as above

In general, pIC50 refers to the IC50 on a negative log10 scale, so that one unit is a factor of ten. As a reminder, the pKd is the negative decadic logarithm of the Kd, by convention in mol/L. A higher pKd goes with a small Kd. `C[C@H](Cc1nncn1C)c1cccc(N2Cc3c(cc(CN4C[C@@H](O)[C@H](F)C4)cc3C(F)(F)F)C2=O)c1` [Compound 395, 6-(((3R,4R)-3-fluoro-4-hydroxypyrrolidin-1-yl)methyl)-2-(3-((R)-1-(4-methyl-4H-1,2,4-triazol-3-yl)propan-2-yl)phenyl)-4-(trifluoromethyl)isoindolin-1-one]: the pIC50 is not below 7.00 in assay [1] and more than 7.00 in assay [5]. Also, the fold induction at 1 µM is more than 0.201 in assay [2], more than 7.5 in assay [3], more than 1 in assay [4] and 1.31 to 1.5 in assay [6]. Moreover, the fold induction at 8 µM in assay [2] was more than 0.201; in assay [4], more than 1. For the same compound, the figures for the fold induction at 0.3 µM in assay [3] and in assay [6] were 2.51 to 5 and 1.01 to 1.3, respectively. For the same compound, the fold induction at 4 µM in assay [3] was more than 7.5; in assay [6] it was 1.31 to 1.5. For the same compound, the pKd in assay [7] is more than 7.00.

Turning to `C[C@H](Cc1nncn1C)c1cccc(N2Cc3c(cc(CN4CCC(F)(F)C4)cc3C(F)(F)F)C2=O)c1` [Compound 396, (R)-6-((3,3-difluoropyrrolidin-1-yl)methyl)-2-(3-(1-(4-methyl-4H-1,2,4-triazol-3-yl)propan-2-yl)phenyl)-4-(trifluoromethyl)isoindolin-1-one], the pIC50 in assay [1] is not below 7.00; in assay [5] it was more than 7.00. Also, the fold induction at 1 µM is 0.151 to 0.2 in assay [2], 5 to 7.5 in assay [3], more than 1 in assay [4] and 1.01 to 1.3 in assay [6]. Further, the figures for the fold induction at 8 µM in assay [2] and in assay [4] were more than 0.201 and more than 1, respectively. For the same compound, the fold induction at 0.3 µM lay within 2.51 to 5 in assay [3] and 1.01 to 1.3 in assay [6]. The fold induction at 4 µM was more than 7.5 in assay [3] and 1.31 to 1.5 in assay [6]. In assay [7], this compound showed a pKd of more than 7.00.

On to `C[C@H](Cc1nncn1C)c1cccc(N2Cc3c(cc(CN4CC[C@@H](F)C4)cc3C(F)(F)F)C2=O)c1` [Compound 400, 6-(((R)-3-fluoropyrrolidin-1-yl)methyl)-2-(3-((R)-1-(4-methyl-4H-1,2,4-triazol-3-yl)propan-2-yl)phenyl)-4-(trifluoromethyl)isoindolin-1-one], for which the pIC50 in assay [1] is not below 7.00; in assay [5], more than 7.00. The fold induction at 1 µM is more than 0.201 in assay [2], more than 7.5 in assay [3], more than 1 in assay [4] and 1.01 to 1.3 in assay [6]. The results for the fold induction at 8 µM in assay [2] and in assay [4] were more than 0.201 and more than 1, respectively. Besides, the fold induction at 0.3 µM was in the range of 5 to 7.5 in assay [3] and 1.01 to 1.3 in assay [6]. Besides, the fold induction at 4 µM in assay [3] is more than 7.5; in assay [6], 1.31 to 1.5. Moreover, the pKd in assay [7] was more than 7.00.

For `C[C@H](Cc1nncn1C)c1cccc(N2Cc3c(cc(CN4CC(F)C4)cc3C(F)(F)F)C2=O)c1` [Compound 401, (R)-6-((3-fluoroazetidin-1-yl)methyl)-2-(3-(1-(4-methyl-4H-1,2,4-triazol-3-yl)propan-2-yl)phenyl)-4-(trifluoromethyl)isoindolin-1-one], the values for the pIC50 in assay [1] and in assay [5] were not below 7.00 and more than 7.00, respectively. Moreover, the fold induction at 1 µM in assay [2] is 0.151 to 0.2; in assay [3] it was more than 7.5; in assay [4] it was more than 1; in assay [6], 1.01 to 1.3. For the same compound, the fold induction at 8 µM is more than 0.201 in assay [2] and more than 1 in assay [4]. Further, the fold induction at 0.3 µM in assay [3] was in the range of 2.51 to 5; in assay [6], 1.01 to 1.3. Also, the results for the fold induction at 4 µM in assay [3] and in assay [6] were more than 7.5 and 1.31 to 1.5, respectively. The same compound gave a pKd in assay [7] of more than 7.00.

As to `C[C@H](Cc1nncn1C)c1cccc(N2Cc3c(cc(CN4CC(F)(F)C4)cc3C(F)(F)F)C2=O)c1` [Compound 402, (R)-6-((3,3-difluoroazetidin-1-yl)methyl)-2-(3-(1-(4-methyl-4H-1,2,4-triazol-3-yl)propan-2-yl)phenyl)-4-(trifluoromethyl)isoindolin-1-one], the pIC50 was not below 7.00 in assay [1] and more than 7.00 in assay [5]. Besides, the fold induction at 1 µM in assay [2] was 0.151 to 0.2; in assay [3], more than 7.5; in assay [4], more than 1; in assay [6], 1.31 to 1.5. Moreover, the fold induction at 8 µM was more than 0.201 in assay [2] and more than 1 in assay [4]. Moreover, the fold induction at 0.3 µM in assay [3] lay in the range of 5 to 7.5; in assay [6], 1.01 to 1.3. Also, the fold induction at 4 µM in assay [3] is more than 7.5; in assay [6], 1.31 to 1.5. In addition, in assay [7], the pKd is more than 7.00.

Consider `C[C@H](Cc1nncn1C)c1cccc(N2Cc3c(cc([C@@H](C)N4CC[C@H](F)C4)cc3C(F)(F)F)C2=O)c1` [Compound 403, 6-((R)-1-((S)-3-fluoropyrrolidin-1-yl)ethyl)-2-(3-((R)-1-(4-methyl-4H-1,2,4-triazol-3-yl)propan-2-yl)phenyl)-4-(trifluoromethyl)isoindolin-1-one], for which the pIC50 in assay [1] was not below 7.00; in assay [5], more than 7.00. Moreover, the fold induction at 1 µM in assay [2] was 0.151 to 0.2; in assay [3] it was more than 7.5; in assay [4], more than 1; in assay [6], 1.01 to 1.3. Also, the fold induction at 8 µM in assay [2] was more than 0.201; in assay [4] it was more than 1. Besides, the fold induction at 0.3 µM in assay [3] fell in the range of 5 to 7.5; in assay [6], 1.01 to 1.3. For the same compound, the fold induction at 4 µM in assay [3] is more than 7.5; in assay [6], 1.31 to 1.5. In assay [7], the pKd was more than 7.00.

Take `Cc1conc1C[C@@H](C)c1cccc(N2Cc3c(cc(C(=O)N4CC[C@H](O)C4)cc3C(F)(F)F)C2=O)c1` [Compound 407, 6-((S)-3-Hydroxypyrrolidine-1-carbonyl)-2-(3-((R)-1-(4-methylisoxazol-3-yl)propan-2-yl)phenyl)-4-(trifluoromethyl)isoindolin-1-one]: the pIC50 is not below 7.00 in assay [1] and more than 7.00 in assay [5]. The fold induction at 1 µM in assay [2] is 0.101 to 0.15; in assay [3], 5 to 7.5; in assay [4] it was more than 1; in assay [6] it was 1.01 to 1.3. The fold induction at 8 µM in assay [2] is more than 0.201; in assay [4] it was more than 1. The fold induction at 0.3 µM lay within 2.51 to 5 in assay [3] and 1.01 to 1.3 in assay [6]. For the same compound, the fold induction at 4 µM in assay [3] was more than 7.5; in assay [6] it was 1.01 to 1.3. This compound showed a pKd in assay [7] of more than 7.00.

Take `Cn1cnnc1[C@@H]1C[C@@H]1c1cccc(N2Cc3c(cc(C#N)cc3C(F)(F)F)C2=O)c1` [Compound 408, 2-(3-((1S,2R)-2-(4-methyl-4H-1,2,4-triazol-3-yl)cyclopropyl)phenyl)-3-oxo-7-(trifluoromethyl)isoindoline-5-carbonitrile]: the pIC50 in assay [1] is not below 6.52; in assay [5], 6.52 to 7.00. In addition, the fold induction at 1 µM in assay [2] is less than 0.05; in assay [3] it was 1.01 to 2.5; in assay [4], 0.601 to 0.8; in assay [6], 1.01 to 1.3. In addition, the fold induction at 8 µM was in the range of 0.101 to 0.15 in assay [2] and 0.801 to 1 in assay [4]. In addition, the fold induction at 0.3 µM in assay [3] was in the range of 1.01 to 2.5; in assay [6], 1.01 to 1.3. The fold induction at 4 µM in assay [3] was 2.51 to 5; in assay [6] it was 1.01 to 1.3. The compound further had a pKd in assay [7] of 6.52 to 7.00.
